# Measured values reported in ChEMBL document CHEMBL1128209, “Cyclooxygenase-2 inhibitors. Synthesis and pharmacological activities of 5-methanesulfonamido-1-indanone derivatives” (J Med Chem, 1995).
# Tests used:
# [1] = molecular target: Prostaglandin G/H synthase 1 (Homo sapiens, UniProt P23219); assay: Inhibition of Prostaglandin G/H synthase 1 in human U937 cells; format: cell-based, U-937
# [2] = molecular target: T1, Prostaglandin G/H synthase 2 (Homo sapiens) (UniProt P35354); assay: Ability to inhibit the Prostaglandin G/H synthase 2 expressed in human osteosarcoma 143 cells, in vitro; format: cell-based; conditions: concentration not given here
# T1 sequence (whole entry): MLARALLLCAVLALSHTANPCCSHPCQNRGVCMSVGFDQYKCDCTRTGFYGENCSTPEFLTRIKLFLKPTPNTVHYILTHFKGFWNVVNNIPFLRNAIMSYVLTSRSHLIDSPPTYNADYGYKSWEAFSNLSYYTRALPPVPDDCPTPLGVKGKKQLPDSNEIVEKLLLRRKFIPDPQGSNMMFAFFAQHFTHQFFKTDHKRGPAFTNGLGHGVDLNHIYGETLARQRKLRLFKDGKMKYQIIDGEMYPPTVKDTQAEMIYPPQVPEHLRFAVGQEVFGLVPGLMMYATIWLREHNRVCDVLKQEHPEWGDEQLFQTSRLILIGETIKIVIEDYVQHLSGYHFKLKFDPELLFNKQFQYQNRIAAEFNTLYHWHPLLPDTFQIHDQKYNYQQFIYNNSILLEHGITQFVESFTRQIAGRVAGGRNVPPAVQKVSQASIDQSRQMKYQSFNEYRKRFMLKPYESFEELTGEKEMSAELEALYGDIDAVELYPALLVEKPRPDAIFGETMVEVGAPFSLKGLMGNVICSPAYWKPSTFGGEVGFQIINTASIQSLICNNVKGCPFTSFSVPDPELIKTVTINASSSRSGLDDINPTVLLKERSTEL
# [3] = tested on: Rattus norvegicus; assay: In vivo antiinflammatory activity by the Carrageenan-induced rat paw edema assay.; format: functional
# [4] = molecular target: T2, Prostaglandin G/H synthase 2 (Homo sapiens, UniProt P35354); assay: In vitro inhibition of prostaglandin G/H synthase 2 expressed in human osteosarcoma 143 cells; format: cell-based
# T2 sequence (P35354 whole entry): T1 sequence (whole entry)
# [5] = tested on: Rattus norvegicus; assay: In vivo antiinflammatory activity by the Carrageenan-induced rat paw hyperalgesia assay.; format: functional
# [6] = tested on: Rattus norvegicus; assay: In vivo antipyretic activity by endotoxin-induced rat pyresis assay.; format: functional
# [7] = Plasma clearance rate was determined for the compound in rats; format: ADME, organism-based; conditions: rat
# [8] = Bioavailability in rat; format: ADME, organism-based; conditions: in vivo
# [9] = Plasma terminal half life in squirrel monkeys at a dose of 1 mg/kg administered intravenously; format: ADME, organism-based; parameters: dose 1 mg/kg, route intravenous; conditions: saimiri, iv
# [10] = Plasma clearance rate was determined for the compound in squirrel monkeys; format: ADME, organism-based; conditions: saimiri
# [11] = tested on: Rattus norvegicus; assay: In vivo antiinflammatory activity by the Carrageenan-induced rat paw edema assay; format: functional
# [12] = Bioavailability in squirrel monkey; format: ADME, organism-based, Saimiri sciureus; conditions: in vivo
# [13] = Plasma Clearance rate was determined for the compound in rats; format: ADME, organism-based; conditions: rat
# [14] = Plasma Clearance rate was determined for the compound in squirrel monkeys; format: ADME, organism-based; conditions: saimiri
# Prostaglandin G/H synthase 1, sequence (P23219 whole entry): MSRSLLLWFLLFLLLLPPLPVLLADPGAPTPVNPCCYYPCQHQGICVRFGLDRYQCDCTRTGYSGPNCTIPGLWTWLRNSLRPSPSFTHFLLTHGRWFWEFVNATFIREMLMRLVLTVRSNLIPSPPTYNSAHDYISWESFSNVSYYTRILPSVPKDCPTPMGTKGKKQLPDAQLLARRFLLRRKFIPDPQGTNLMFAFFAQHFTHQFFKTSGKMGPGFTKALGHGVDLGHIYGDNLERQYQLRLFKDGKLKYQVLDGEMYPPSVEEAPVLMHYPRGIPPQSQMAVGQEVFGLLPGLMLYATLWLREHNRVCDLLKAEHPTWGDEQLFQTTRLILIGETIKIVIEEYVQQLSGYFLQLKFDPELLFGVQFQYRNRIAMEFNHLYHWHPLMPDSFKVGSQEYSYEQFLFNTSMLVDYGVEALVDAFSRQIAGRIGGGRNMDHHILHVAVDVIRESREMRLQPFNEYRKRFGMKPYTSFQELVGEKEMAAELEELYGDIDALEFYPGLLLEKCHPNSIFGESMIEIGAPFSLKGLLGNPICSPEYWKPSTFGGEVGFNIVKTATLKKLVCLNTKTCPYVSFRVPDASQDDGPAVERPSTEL
Compound,IC50 [1] [µM],IC50 [4] [nM],further results
Cc1ccccc1Sc1cc2c(cc1NS(C)(=O)=O)CCC2=O,> 50,,
CS(=O)(=O)Nc1cc2c(cc1[S+]([O-])c1ccc(F)cc1F)C(=O)CC2 (stereo unspecified),,,inhibition [2]: 27%
CS(=O)(=O)Nc1cc2c(cc1Sc1ccc(Br)cc1)C(=O)CC2,> 10,10,ED30 [3]: 3 MPK
CS(=O)(=O)Nc1cc2c(cc1Sc1ccc(Cl)cc1Cl)C(=O)CC2,40,10,ED30 [3]: 0.1 MPK
CS(=O)(=O)Nc1cc2c(cc1Sc1cccs1)C(=O)CC2,,1000,
COc1ccc2c(c1)c(CC(=O)O)c(C)n2C(=O)c1ccc(Cl)cc1 [INDOMETHACIN],,,ED50 [3]: 2 mg/kg; ED50 [5]: 1.47 mg/kg; ED50 [6]: 7 mg/kg
CS(=O)(=O)Nc1cc2c(cc1Sc1ccccc1F)C(=O)CC2,> 50,100,
CS(=O)(=O)Nc1cc2c(cc1SC1CCCCC1)C(=O)CC2,> 50,50,ED30 [3]: >3 MPK
CS(=O)(=O)Nc1cc2c(cc1Sc1cncs1)C(=O)CC2,,> 10000,
CS(=O)(=O)Nc1cc2c(cc1Sc1c(F)cccc1F)C(=O)CC2,> 50,100,
CS(=O)(=O)Nc1cc2c(cc1OC1CCOCC1)C(=O)CC2,,> 10000,
CS(=O)(=O)Nc1cc2c(cc1S(=O)(=O)c1ccc(F)cc1F)C(=O)CC2,,> 10000,
Cc1ccc(Sc2cc3c(cc2NS(C)(=O)=O)CCC3=O)cc1,> 1,,ED30 [3]: 10 MPK
COc1ccc(Sc2cc3c(cc2NS(C)(=O)=O)CCC3=O)cc1,,100,
CS(=O)(=O)Nc1cc2c(cc1Nc1ccc(F)cc1F)C(=O)CC2,,1000,
CS(=O)(=O)Nc1cc2c(cc1Oc1ccc(S(C)(=O)=O)cc1)C(=O)CC2,,> 10000,
Cc1cccc(Sc2cc3c(cc2NS(C)(=O)=O)CCC3=O)c1,,> 10000,
CS(=O)(=O)Nc1cc2c(cc1Sc1ccc(C(=O)O)cc1)C(=O)CC2,,> 10000,
CS(=O)(=O)Nc1cc2c(cc1Sc1cscn1)C(=O)CC2,,> 10000,
CC(=O)Nc1cc2c(cc1Sc1ccc(F)cc1F)C(=O)CC2,,> 10000,

Compound,IC50 [1] [µM],IC50 [4] [nM],further results
O=C1CCc2cc(NC(=O)C(F)(F)F)c(Sc3ccc(F)cc3F)cc21,,> 10000,
CS(=O)(=O)Nc1cc2c(cc1Sc1ccc(F)cc1F)C(=O)CC2,> 50,,clearance [7]: 0.5 mL/min; bioavailability [8]: 90%; half-life [9]: 414 min; clearance [10]: 0.5 mL/min; ED30 [11]: 0.21 MPK; bioavailability [12]: 145%
CS(=O)(=O)Nc1cc2c(cc1Sc1ccc(F)cc1)C(=O)CC2,> 50,1000,
CS(=O)(=O)Nc1cc2c(cc1Sc1ccsc1)C(=O)CC2,,,inhibition [2]: 46%
CSc1ccc(Oc2cc3c(cc2NS(C)(=O)=O)CCC3=O)cc1,,100,
CC(C)c1ccc(Sc2cc3c(cc2NS(C)(=O)=O)CCC3=O)cc1,,> 10000,
CS(=O)(=O)Nc1cc2c(cc1OC1CCCC1)C(=O)CC2,> 10,> 1000,
CS(=O)(=O)Nc1cc2c(cc1Sc1ccccn1)C(=O)CC2,,100,
CCc1ccc(Sc2cc3c(cc2NS(C)(=O)=O)CCC3=O)cc1,,100,
CS(=O)(=O)Nc1cc2c(cc1Oc1ccc(F)cc1F)C(=O)CC2 [FLOSULIDE],> 50,,bioavailability [8]: 92%; ED30 [3]: 0.6 MPK; half-life [9]: 294 min; bioavailability [12]: 63%; clearance [13]: 1.2 mL/min; clearance [14]: 1.2 mL/min
CC(C)(C)c1ccc(Sc2cc3c(cc2NS(C)(=O)=O)CCC3=O)cc1,,> 10000,
COc1ccccc1Sc1cc2c(cc1NS(C)(=O)=O)CCC2=O,,> 10000,
CCS(=O)(=O)Nc1cc2c(cc1Sc1ccc(F)cc1F)C(=O)CC2,> 10,> 10000,
CS(=O)(=O)Nc1cc2c(cc1Sc1cccnc1)C(=O)CC2,,,inhibition [2]: 30%
CS(=O)(=O)Nc1cc2c(cc1Sc1ccncc1)C(=O)CC2,,1000,
CS(=O)(=O)Nc1cc2c(cc1OC1CCCCC1)C(=O)CC2,> 1,50,ED30 [3]: 10 MPK
O=C1CCc2cc(NS(=O)(=O)C(F)(F)F)c(Sc3ccc(F)cc3F)cc21,,40,
CS(=O)(=O)Nc1cc2c(cc1Sc1nccs1)C(=O)CC2,> 10,100,ED30 [3]: 0.85 MPK
CS(=O)(=O)Nc1cc2c(cc1Cc1ccc(F)cc1F)C(=O)CC2,< 1,> 200,
CS(=O)(=O)Nc1cc2c(cc1Sc1cccc(F)c1)C(=O)CC2,,> 10000,
